Consider 24 compounds from patent publication US10899769B2, “Imidazopiperazinone inhibitors of transcription activating proteins” (Board of Regents, The University of Texas System, priority 2018, dated 2021).

pIC50: −log10 of the molar value.

As a reminder, the pIC50 is the IC50 on a negative log10 scale, so that one unit is a factor of ten. The low end stands for a high IC50, the high end for a low IC50.

For experiment [1], the target named is BRD4(49-170) bromodomain (Homo sapiens (Human), UniProt O60885). Kind of experiment: BRD4 AlphaScreen Assay. The conditions noted are these: binding to biotin-H4(1-21) Ac-K5/8/12/16. Put shortly: (§1)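 AlphaScreen binding of GST-bromodomain to biotin-H4(1-21) Ac-K5/8/12/16: 5 nM CBP with 20 nM peptide, or 2.5 nM BRD4 with 10 nM peptide, in 50 mM HEPES 7.5, […], 1 mM TCEP, 0.003% Tween-20. Compound preincubated 30 min, then beads 2 h, room temperature. IC50 from variable-slope fit.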

In experiment [2] the target is GST-CBP(1081-1197) bromodomain (Homo sapiens (Human), UniProt Q92793). Kind of experiment: CBP AlphaScreen Assay. The note with it: binding to biotin-H4(1-21) Ac-K5/8/12/16. The method in brief:
as §1
For orientation: Alpha assays give light when donor and acceptor beads are brought close together.

Sequence of GST-CBP(1081-1197) bromodomain (Q92793 1081-1197): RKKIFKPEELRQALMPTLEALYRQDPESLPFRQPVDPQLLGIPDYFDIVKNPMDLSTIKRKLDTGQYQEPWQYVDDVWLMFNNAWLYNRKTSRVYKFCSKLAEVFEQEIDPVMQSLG

Consider `Cc1nn(C)cc1-c1nc2cccc(-c3nc(C4CC4)n4c3CN(C)C(=O)C4C)c2cc1C(F)F` (stereo not drawn) [Example 65, 3-cyclopropyl-1-(3-(difluoromethyl)-2-(1,3-dimethyl-1H-pyrazol-4-yl)quinolin-5-yl)-5,7-dimethyl-7,8-dihydroimidazo[1,5-a] pyrazin-6(5H)-one], for which the pIC50 in experiment [1] was 6.37; in experiment [2], 7.77.

Consider `CC1C(=O)N(C)Cc2c(-c3cccc4cc(-c5ncco5)ncc34)nc(C3CC3)n21` (stereo not drawn) [Example 66, 3-cyclopropyl-5,7-dimethyl-1-(3-(oxazol-2-yl)isoquinolin-8-yl)-7,8-dihydroimidazo[1,5-a] pyrazin-6(5H)-one], for which the results for the pIC50 in experiment [1] and in experiment [2] were 5.80 and 7.96, respectively.

In the case of `Cc1ncn(-c2nc3cccc(-c4nc(C5CC5)n5c4CN(C)C(=O)C5C)c3cc2C(F)F)n1` (stereo not drawn) [Example 67, 3-cyclopropyl-1-(3-(difluoromethyl)-2-(3-methyl-1H-1,2,4-triazol-1-yl)quinolin-5-yl)-5,7-dimethyl-7,8-dihydroimidazo[1,5-a] pyrazin-6(5H)-one], the values for the pIC50 in experiment [1] and in experiment [2] were 6.50 and 8.52, respectively.

Regarding `Cc1ncc(-c2nc3cccc(-c4nc(C5CC5)n5c4CN(C)C(=O)C5C)c3cc2C(F)F)s1` (stereo not drawn) [Example 68, 3-cyclopropyl-1-(3-(difluoromethyl)-2-(2-methylthiazol-5-yl)quinolin-5-yl)-5,7-dimethyl-7,8-dihydroimidazo[1,5-a] pyrazin-6(5H)-one], the negative-log IC50 (pIC50) in experiment [1] was 6.79; in experiment [2] it was 8.30.

Consider `CC1C(=O)N(C)Cc2c(-c3cccc4nc(-c5cn(C)cn5)c(C(F)F)cc34)nc(C3CC3)n21` (stereo not drawn) [Example 69, 3-cyclopropyl-1-(3-(difluoromethyl)-2-(1-methyl-1H-imidazol-4-yl)quinolin-5-yl)-5,7-dimethyl-7,8-dihydroimidazo[1,5-a] pyrazin-6(5H)-one], for which the pIC50 is 5.82 in experiment [1] and 7.89 in experiment [2].

For the compound `Cc1cn(-c2cc3cccc(-c4nc(C5CC5)n5c4CN(C)C(=O)C5C)c3cn2)cn1` (stereo not drawn) [Example 70, 3-cyclopropyl-5,7-dimethyl-1-(3-(4-methyl-1H-imidazol-1-yl)isoquinolin-8-yl)-7,8-dihydroimidazo[1,5-a] pyrazin-6(5H)-one], the values for the pIC50 in experiment [1] and in experiment [2] were 6.18 and 8.70, respectively.

Consider `Cc1ncn(-c2cc3cccc(-c4nc(C5CC5)n5c4CN(C)C(=O)C5C)c3cn2)n1` (stereo not drawn) [Example 71, 3-cyclopropyl-5,7-dimethyl-1-(3-(3-methyl-1H-1,2,4-triazol-1-yl)isoquinolin-8-yl)-7,8-dihydroimidazo[1,5-a] pyrazin-6(5H)-one], for which the pIC50 in experiment [1] was 6.06; in experiment [2] it was 8.40.

Regarding `Cc1cn(-c2cc3cccc(-c4nc(C5CC5)n5c4CN(C)C(=O)C5C)c3cn2)nc1C` (stereo not drawn) [Example 72, 3-cyclopropyl-1-(3-(3,4-dimethyl-1H-pyrazol-1-yl)isoquinolin-8-yl)-5,7-dimethyl-7,8-dihydroimidazo[1,5-a] pyrazin-6(5H)-one], the pIC50 in experiment [1] was 6.53; in experiment [2], 8.70.

As to `Cc1ccn(-c2cc3cccc(-c4nc(C5CC5)n5c4CN(C)C(=O)C5C)c3cn2)n1` (stereo not drawn) [Example 73, 3-cyclopropyl-5,7-dimethyl-1-(3-(3-methyl-1H-pyrazol-1-yl)isoquinolin-8-yl)-7,8-dihydroimidazo[1,5-a] pyrazin-6(5H)-one], the pIC50 in experiment [1] was 6.39; in experiment [2], 8.52.

As to `CC1C(=O)N(C)Cc2c(-c3cccc4nc(-c5ncco5)c(C(F)F)cc34)nc(C3CC3)n21` (stereo not drawn) [Example 74, 3-cyclopropyl-1-(3-(difluoromethyl)-2-(oxazol-2-yl)quinolin-5-yl)-5,7-dimethyl-7,8-dihydroimidazo[1,5-a] pyrazin-6(5H)-one], the pIC50 was 6.75 in experiment [1] and 8.40 in experiment [2].

As for `CC1C(=O)N(C)Cc2c(-c3cccc4nc(-c5cnn(C)c5)c(C(F)F)cc34)nc(C3CCNCC3)n21` (stereo not drawn) [Example 75, 1-(3-(difluoromethyl)-2-(1-methyl-1H-pyrazol-4-yl)quinolin-5-yl)-5,7-dimethyl-3-(piperidin-4-yl)-7,8-dihydroimidazo[1,5-a] pyrazin-6(5H)-one], the figures for the pIC50 in experiment [1] and in experiment [2] were 4.92 and 6.76, respectively.

For the compound `CC1C(=O)N(C)Cc2c(-c3cccc4cc(-c5cn(C)cn5)ncc34)nc(C3CC3)n21` (stereo not drawn) [Example 76, 3-cyclopropyl-5,7-dimethyl-1-(3-(1-methyl-1H-imidazol-4-yl)isoquinolin-8-yl)-7,8-dihydroimidazo[1,5-a] pyrazin-6(5H)-one], the pIC50 is 6.42 in experiment [1] and 8.70 in experiment [2].

In the case of `CC1C(=O)N(C)Cc2c(-c3cccc4nc(-c5cnn(C)c5)c(C(F)F)cc34)nc(C3CCN(CC(F)(F)F)CC3)n21` (stereo not drawn) [Example 77, 1-(3-(difluoromethyl)-2-(1-methyl-1H-pyrazol-4-yl)quinolin-5-yl)-5,7-dimethyl-3-(1-(2,2,2-trifluoroethyl)piperidin-4-yl)-7,8-dihydroimidazo [1,5-a] pyrazin-6(5H)-one], the pIC50 in experiment [1] is 5.54; in experiment [2], 7.47.

For `CC1C(=O)N(C)Cc2c(-c3cccc4nc(-c5cnn(C)c5)c(C(F)F)cc34)nc(C3CCN(CC(F)F)CC3)n21` (stereo not drawn) [Example 78, 3-(1-(2,2-difluoroethyl)piperidin-4-yl)-1-(3-(difluoromethyl)-2-(1-methyl-1H-pyrazol-4-yl)quinolin-5-yl)-5,7-dimethyl-7,8-dihydroimidazo[1,5-a] pyrazin-6(5H)-one], the values for the pIC50 in experiment [1] and in experiment [2] were 5.42 and 7.39, respectively.

As for `CNC(=O)N1CCC(c2nc(-c3cccc4nc(-c5cnn(C)c5)c(C(F)F)cc34)c3n2C(C)C(=O)N(C)C3)CC1` (stereo not drawn) [Example 79, 4-(1-(3-(difluoromethyl)-2-(1-methyl-1H-pyrazol-4-yl)quinolin-5-yl)-5,7-dimethyl-6-oxo-5,6,7,8-tetrahydroimidazo[1,5-a]pyrazin-3-yl)-N-methylpiperidine-1-carboxamide], the values for the pIC50 in experiment [1] and in experiment [2] were 5.61 and 7.41, respectively.

For the compound `CC(=O)N1CCC(c2nc(-c3cccc4nc(-c5cnn(C)c5)c(C(F)F)cc34)c3n2C(C)C(=O)N(C)C3)CC1` (stereo not drawn) [Example 80, 3-(1-acetylpiperidin-4-yl)-1-(3-(difluoromethyl)-2-(1-methyl-1H-pyrazol-4-yl)quinolin-5-yl)-5,7-dimethyl-7,8-dihydroimidazo[1,5-a] pyrazin-6(5H)-one], the pIC50 is 5.59 in experiment [1] and 7.35 in experiment [2].

For the compound `CC1C(=O)N(C)Cc2c(-c3cccc4nc(-c5cnn(C)c5)c(C(F)F)cc34)nc(C3CCN(CCF)CC3)n21` (stereo not drawn) [Example 81, 1-(3-(difluoromethyl)-2-(1-methyl-1H-pyrazol-4-yl)quinolin-5-yl)-3-(1-(2-fluoroethyl)piperidin-4-yl)-5,7-dimethyl-7,8-dihydroimidazo[1,5-a] pyrazin-6(5H)-one], the values for the pIC50 in experiment [1] and in experiment [2] were 5.02 and 6.82, respectively.

In the case of `COCCN1CCC(c2nc(-c3cccc4nc(-c5cnn(C)c5)c(C(F)F)cc34)c3n2C(C)C(=O)N(C)C3)CC1` (stereo not drawn) [Example 82, 1-(3-(difluoromethyl)-2-(1-methyl-1H-pyrazol-4-yl)quinolin-5-yl)-3-(1-(2-methoxyethyl)piperidin-4-yl)-5,7-dimethyl-7,8-dihydroimidazo[1,5-a] pyrazin-6(5H)-one], the pIC50 is 4.91 in experiment [1] and 6.64 in experiment [2].

Turning to `CC1C(=O)N(C)Cc2c(-c3cccc4nc(-c5cnn(C)c5)c(C(F)F)cc34)nc(C3CCN(S(C)(=O)=O)CC3)n21` (stereo not drawn) [Example 83, 1-(3-(difluoromethyl)-2-(1-methyl-1H-pyrazol-4-yl)quinolin-5-yl)-5,7-dimethyl-3-(1-(methylsulfonyl)piperidin-4-yl)-7,8-dihydroimidazo[1,5-a] pyrazin-6(5H)-one], the pIC50 in experiment [1] was 5.49; in experiment [2], 7.38.

In the case of `CC1C(=O)N(C)Cc2c(-c3cccc4nc(-c5cnn(C)c5)c(C(F)F)cc34)nc(C3CCN(CCO)CC3)n21` (stereo not drawn) [Example 84, 1-(3-(difluoromethyl)-2-(1-methyl-1H-pyrazol-4-yl)quinolin-5-yl)-3-(1-(2-hydroxyethyl)piperidin-4-yl)-5,7-dimethyl-7,8-dihydroimidazo[1,5-a] pyrazin-6(5H)-one], the values for the pIC50 in experiment [1] and in experiment [2] were 4.93 and 6.64, respectively.

As to `CC1C(=O)N(C)Cc2c(-c3cccc4cc(-c5ccn(C)n5)ncc34)nc(C3CCOCC3)n21` (stereo not drawn) [Example 85, 5,7-dimethyl-1-(3-(1-methyl-1H-pyrazol-3-yl)isoquinolin-8-yl)-3-(tetrahydro-2H-pyran-4-yl)-7,8-dihydroimidazo[1,5-a] pyrazin-6(5H)-one], the results for the pIC50 in experiment [1] and in experiment [2] were 4.62 and 7.11, respectively.

Take `CC1C(=O)N(C)Cc2c(-c3cccc4cc(-c5ccn(C)n5)ncc34)nc(C3CCOCC3)n21` (stereo not drawn) [Example 86, 5,7-dimethyl-1-(3-(1-methyl-1H-pyrazol-3-yl)isoquinolin-8-yl)-3-(tetrahydro-2H-pyran-4-yl)-7,8-dihydroimidazo[1,5-a] pyrazin-6(5H)-one]: the pIC50 in experiment [1] was 6.63; in experiment [2] it was 9.00.

On to `Cc1nn(C)cc1-c1cc2cccc(-c3nc(C4CCOCC4)n4c3CN(C)C(=O)C4C)c2cn1` (stereo not drawn) [Example 87, 1-(3-(1,3-dimethyl-1H-pyrazol-4-yl)isoquinolin-8-yl)-5,7-dimethyl-3-(tetrahydro-2H-pyran-4-yl)-7,8-dihydroimidazo[1,5-a] pyrazin-6(5H)-one], for which the figures for the pIC50 in experiment [1] and in experiment [2] were 4.97 and 7.11, respectively.

Consider `Cc1nn(C)cc1-c1cc2cccc(-c3nc(C4CCOCC4)n4c3CN(C)C(=O)C4C)c2cn1` (stereo not drawn) [Example 88, 1-(3-(1,3-dimethyl-1H-pyrazol-4-yl)isoquinolin-8-yl)-5,7-dimethyl-3-(tetrahydro-2H-pyran-4-yl)-7,8-dihydroimidazo[1,5-a] pyrazin-6(5H)-one], for which the values for the pIC50 in experiment [1] and in experiment [2] were 7.00 and 9.00, respectively.
